{
  "source": "BigSolDB 2.1",
  "data": [
    {"compound": "CCN(CC)CCNC(=O)c1c(C)[nH]c(/C=C2\\C(=O)Nc3ccc(F)cc32)c1C.O=C(O)C[C@H](O)C(=O)O", "values": [
      {"measurement": "solubility (mole fraction)", "setting": "in PEG-400, 298.2 K", "value": 0.00634},
      {"measurement": "solubility (mole fraction)", "setting": "in PEG-400, 303.2 K", "value": 0.0076},
      {"measurement": "solubility (mole fraction)", "setting": "in PEG-400, 308.2 K", "value": 0.00996},
      {"measurement": "solubility (mole fraction)", "setting": "in PEG-400, 313.2 K", "value": 0.0129},
      {"measurement": "solubility (mole fraction)", "setting": "in PEG-400, 318.2 K", "value": 0.0167},
      {"measurement": "solubility (mole fraction)", "setting": "in ethanol, 298.2 K", "value": 0.00277},
      {"measurement": "solubility (mole fraction)", "setting": "in ethanol, 303.2 K", "value": 0.00321},
      {"measurement": "solubility (mole fraction)", "setting": "in ethanol, 308.2 K", "value": 0.00372},
      {"measurement": "solubility (mole fraction)", "setting": "in ethanol, 313.2 K", "value": 0.0043},
      {"measurement": "solubility (mole fraction)", "setting": "in ethanol, 318.2 K", "value": 0.00516},
      {"measurement": "solubility (mole fraction)", "setting": "in ethylene glycol, 298.2 K", "value": 0.00104},
      {"measurement": "solubility (mole fraction)", "setting": "in ethylene glycol, 303.2 K", "value": 0.00139},
      {"measurement": "solubility (mole fraction)", "setting": "in ethylene glycol, 308.2 K", "value": 0.00186},
      {"measurement": "solubility (mole fraction)", "setting": "in ethylene glycol, 313.2 K", "value": 0.00244},
      {"measurement": "solubility (mole fraction)", "setting": "in ethylene glycol, 318.2 K", "value": 0.00313},
      {"measurement": "solubility (mole fraction)", "setting": "in isopropanol, 298.2 K", "value": 0.00634},
      {"measurement": "solubility (mole fraction)", "setting": "in isopropanol, 303.2 K", "value": 0.0076},
      {"measurement": "solubility (mole fraction)", "setting": "in isopropanol, 308.2 K", "value": 0.00996},
      {"measurement": "solubility (mole fraction)", "setting": "in isopropanol, 313.2 K", "value": 0.0129},
      {"measurement": "solubility (mole fraction)", "setting": "in isopropanol, 318.2 K", "value": 0.0167},
      {"measurement": "solubility (mole fraction)", "setting": "in propylene glycol, 298.2 K", "value": 0.00179},
      {"measurement": "solubility (mole fraction)", "setting": "in propylene glycol, 303.2 K", "value": 0.00228},
      {"measurement": "solubility (mole fraction)", "setting": "in propylene glycol, 308.2 K", "value": 0.00303},
      {"measurement": "solubility (mole fraction)", "setting": "in propylene glycol, 313.2 K", "value": 0.00385},
      {"measurement": "solubility (mole fraction)", "setting": "in propylene glycol, 318.2 K", "value": 0.00483},
      {"measurement": "solubility (mole fraction)", "setting": "in transcutol, 298.2 K", "value": 0.00997},
      {"measurement": "solubility (mole fraction)", "setting": "in transcutol, 303.2 K", "value": 0.0117},
      {"measurement": "solubility (mole fraction)", "setting": "in transcutol, 308.2 K", "value": 0.0136},
      {"measurement": "solubility (mole fraction)", "setting": "in transcutol, 313.2 K", "value": 0.0163},
      {"measurement": "solubility (mole fraction)", "setting": "in transcutol, 318.2 K", "value": 0.0187},
      {"measurement": "solubility (mole fraction)", "setting": "in water, 298.2 K", "value": "3.72e-06"},
      {"measurement": "solubility (mole fraction)", "setting": "in water, 303.2 K", "value": "4.74e-06"},
      {"measurement": "solubility (mole fraction)", "setting": "in water, 308.2 K", "value": "6.09e-06"},
      {"measurement": "solubility (mole fraction)", "setting": "in water, 313.2 K", "value": "8.46e-06"},
      {"measurement": "solubility (mole fraction)", "setting": "in water, 318.2 K", "value": "1.05e-05"}
    ]}
  ]
}
